“And” between values parts separate entries of the source, which are not always exact repeats. Identical values can stand only once. Counter-ions that a name gives are not always drawn. Like-named read-outs stand apart in the source and are kept apart here. Marks after values point to notes of the source that are not given here.
Assays:
[1] = test system: DC-3F hamster lung fibroblast cell line; assay: SRB cytotoxicity, DC-3F; type: cell-based
In short: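 Cellular protein content measured with sulforhodamine B after trichloroacetic acid fixation, read at 570 nm. Each duplicate run used six to seven concentrations, analysed by the median-effect method. Cells were cultured at 37 °C, 5% CO2 in RPMI 1640-10% FBS, and drug-resistant lines were maintained with their selecting agent.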

[2] = test system: P388/Adr; assay: cells; type: cell-based, murine; settings: Table 1C; for folds of resistance (IC50 ratio vs parent cell line): P388/Adr vs P388/O; for IC50: XTT, 72 h, read-out: IC50
In short: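 Duplicate 72 h cultures at 5×10^4 cells/mL, 37 °C, 5% CO2; then XTT plus PMS for 4 h; dual-wavelength read at 450/630 nm. Resistant sublines held under their selecting agents.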

[3] = Toxicity in normal nude mice; type: in vivo, athymic nude mice; settings: for Number of mice died: QD × 4, i.p.; for decrease in lymphocytes: EpoB 0.6 mg/kg or dEpoB 25 mg/kg, QDx4, i.p., preliminary; for mice died / survived: desoxyepothilone B 25 mg/kg QDx4 i.p.; for mice died of toxicity: epothilone B 0.6 mg/kg QDx4 i.p.
Procedure: For in vivo studies, paclitaxel in Cremophor-EtOH was further diluted with DMSO as needed. Vinblastine sulfate (Velban) (Eli Lilly & Co. Indianapolis, Ind.), and doxorubicin or adriamycin HCl (DX or Adr) (Pharmacia, Columbus, Ohio) in saline were diluted with DMSO as needed. DMSO was used as a vehicle for epothilones. Each mouse received ≦40 μL DMSO in all experiments.
The toxicity of EpoB and dEpoB was compared in normal athymic nude mice on the daily i.p. schedule. EpoB at 0.6 mg/kg, QDX4, i.p. led to lethality in all eight mice. […] Similar leukopenia was found with paclitaxel. Some obstructive fecal mass in the large intestine was noted following Epo treatments in the preliminary study.

[4] = test system: A549 Human Lung Carcinoma; assay: A549 xenograft; type: in vivo, nude mice; settings: for Average Tumor Size, Day 11: control 96; for Average Tumor Size, Day 15: control 306; for Average Tumor Size, Day 17: control 553; for Average Body Weight, Day 7: initial weight
[5] = test system: B16 Melanoma; type: in vivo, B6D2F1 mice
[6] = Hematology and blood chemistry toxicity in MX-1 bearing mice; settings: day 30; dEpoB 25 mg/kg i.p. day 7-15 then 35 mg/kg day 17-25; Taxol 5 then 6 mg/kg; MX-1 bearing nude mice
[7] = test system: DC-3F/ADII; assay: SRB cytotoxicity, DC-3F/ADII; type: cell-based, hamster; settings: Mesocricetus auratus, DC3F
In short: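 Cell protein content measured by sulforhodamine B staining after trichloroacetic acid fixation, read at 570 nm; duplicate runs of six to seven concentrations fitted by median-effect analysis. Lines are actinomycin D-resistant DC-3F hamster lung sublines (ADII, ADX), kept under selecting drug in RPMI 1640-10% FBS.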

[8] = test system: CCRF-CEM; assay: Drug combination analysis (combination index, XTT, 72 h); type: cell-based; settings: Homo sapiens, median-effect parameter, read-out: Dm (IC50)
[9] = Table 1C, SRB, 72 h, read-out: IC50
[10] = A549 Lung, dEpoB 40 mg/kg Q2D x 3, Taxol 15 mg/kg Q2D x 3
[11] = Q2D x 3, 6 hr i.v. infusion: dEpoB 40, Taxol 24 mg/kg
[12] = Q2D x 3: dEpoB 30 mg/kg 18 hr i.v. infusion, Taxol 15 mg/kg 6 hr infusion, VBL 2 and VP-16 25 mg/kg i.v. inj
[13] = dEpoB 50 mg/kg Q2D x 3, 6 hr i.v. infusion
[14] = 10 mg/kg QD × 8 from day 1, day 5
[15] = 10 mg/kg QD × 8 from day 1, day 7
[16] = 10 mg/kg QD × 8 from day 1, day 9
[17] = 10 mg/kg QD × 8 from day 1, day 11
[18] = 0.4 mg/kg QD × 6 from day 1, day 5
[19] = 0.4 mg/kg QD × 6 from day 1, day 9
[20] = 0.4 mg/kg QD × 6 from day 1, day 11
[21] = 0.8 mg/kg QD × 5 from day 1, day 5
[22] = 0.8 mg/kg QD × 5 from day 1, day 7
[23] = 0.8 mg/kg QD × 5 from day 1, day 11

For `C/C1=C/C[C@@H](/C(C)=C/c2csc(C)n2)OC(=O)C[C@H](O)C(C)(C)C(=O)[C@H](C)[C@@H](O)[C@@H](C)CCC1` [Desoxyepothilone B, desoxyepothilone B], the IC50 [1, 9] was 0.97 nM, the “folds of resistance (IC50 ratio vs parent cell line)” value [2] was “(0.62x)” and the IC50 [2] was 4.2 nM. The Died ([3]; 25 mg/kg QD × 4, 6 mice) was 0, the “Disappearance Duration” value ([3]; 25 mg/kg QD × 4, 6 mice) was 0 and the “Number of mice died” value ([3]; 25 mg/kg, 6 mice) was 0. The decrease in lymphocytes [3] was 43%, the body weight course ([3]; dEpoB 25 mg/kg daily i.p. for 4 days, listed as dEpoB) was “maintained approximately the same average body weight” and the body weight course ([3]; dEpoB 25 mg/kg daily i.p. for 4 days, listed as desoxyepothilone B) was “no reduction in average body weight”. The “mice died / survived” value ([3]; 6 mice) was “all six mice survived”, the “mice died / survived” value ([3]; 6 mice, listed as dEpoB) was “zero of six” and the “Therapeutic effect Rank Order” value ([4]; A549, i.v. infusion) was “Taxol ®, dEpoB, VBL > VP-16”. For the same compound, the “Lowest Average Tumor Size (T/C)” value [4, 10] was 0.01 T/C, the “Tumor Disappearance” value [4, 10] was 1/3 and the “Therapeutic Effects dEpoB vs Taxol” value ([4]; A549 Lung, dEpoB 40 mg/kg Q2D x 3 vs Taxol 15 mg/kg Q2D x 3) was “≅”. The “Average Body Weight (change), Day 11” value [4, 11] was -1.6 g, the “Average Body Weight (change), Day 13” value [4, 11] was -3.2 g and the “Average Body Weight (change), Day 15” value [4, 11] was -2.4 g. For the same compound, the “Tumor Disappearance” value [4, 11] was 1/3, the “Average Tumor Size, Day 11” value [4, 11] was 31 mm^3 and the “Average Tumor Size, Day 15” value [4, 11] was 4 mm^3. The “Average Tumor Size, Day 17” value [4, 11] was 4 mm^3, the “Average Body Weight (change), Day 11” value [4, 12] was -2.0 g and the “Average Body Weight (change), Day 13” value [4, 12] was -5.8 g. For the same compound, the “Average Body Weight (change), Day 15” value [4, 12] was -5.6 g, the “Tumor Disappearance” value [4, 12] was 1/3 and the “Average Tumor Size, Day 11” value [4, 12] was 17 mm^3. The “Average Tumor Size, Day 15” value [4, 12] was 26 mm^3, the “Average Tumor Size, Day 17” value [4, 12] was 21 mm^3 and the “Average Body Weight (change), Day 11” value [4, 13] was -2.0 g. For the same compound, the “Average Body Weight (change), Day 13” value [4, 13] was -3.2 g, the “Average Body Weight (change), Day 15” value [4, 13] was -2.5 g and the “Tumor Disappearance” value [4, 13] was 1/2. For the same compound, the “Average Tumor Size, Day 11” value [4, 13] was 33 mm^3, the “Average Tumor Size, Day 13” value ([4]; dEpoB 50 mg/kg Q2D x 3, 6 hr i.v. infusion, control 128) was 19 mm^3 and the “Average Tumor Size, Day 15” value [4, 13] was 6 mm^3. For the same compound, the “Average Tumor Size, Day 17” value [4, 13] was 6 mm^3, the “Average Body Weight, Day 7” value [4, 11] was 27.8 g and the “Average Body Weight, Day 7” value [4, 12] was 29.3 g. For the same compound, the “Average Body Weight, Day 7” value [4, 13] was 27.1 g, the “Average Tumor Size, Day 13” value ([4]; mouse, in vivo) was 21 mm^3 and 19 mm^3 and the “# Mice Died” value ([5]; 10 mg/kg QD × 8 from day 1) was 0/6. The “Average weight change” value ([5]; 10 mg/kg QD × 8 from day 1, day 3) was -0.7 g, the “Average Tumor Volume (T/C)” value [5, 14] was 0.23 and the “Average weight change” value [5, 14] was -0.9 g. The “Average Tumor Volume (T/C)” value [5, 15] was 0.22, the “Average weight change” value [5, 15] was -1.1 g and the “Average Tumor Volume (T/C)” value [5, 16] was 0.51. The “Average weight change” value [5, 16] was -1.5 g, the “Average Tumor Volume (T/C)” value [5, 17] was 0.28 and the “Average weight change” value [5, 17] was -0.3 g. For the same compound, the mice died ([5]; 10 mg/kg QDx8 from day 1 (FIG. 44)) was 0 of 8, the “# Mice Died” value ([5]; 20 mg/kg QD1-4,7-8) was 0/6 and the “Average weight change” value ([5]; 20 mg/kg QD1-4,7-8, day 3) was -1.3 g. For the same compound, the “Average Tumor Volume (T/C)” value ([5]; 20 mg/kg QD1-4,7-8, day 5) was 0.59, the “Average weight change” value ([5]; 20 mg/kg QD1-4,7-8, day 5) was -2.2 g and the “Average Tumor Volume (T/C)” value ([5]; 20 mg/kg QD1-4,7-8, day 7) was 0.63. For the same compound, the “Average weight change” value ([5]; 20 mg/kg QD1-4,7-8, day 7) was -1.3 g, the “Average Tumor Volume (T/C)” value ([5]; 20 mg/kg QD1-4,7-8, day 9) was 0.58 and the “Average weight change” value ([5]; 20 mg/kg QD1-4,7-8, day 9) was -1.6 g. The “Average weight change” value ([5]; 20 mg/kg QD1-4,7-8, day 11) was -0.8 g, the “Therapeutic effect Rank Order” value ([5]; mouse, in vivo, ip) was “dEpoB > Taxol ® >> EpoB” and the GOT [6] was 296 U/L. The GPT [6] was 55 (n = 3) U/L, the “WBC Lymph” value [6] was 48% and the “WBC Neutrophils” value [6] was 48%. For the same compound, the “WBC Total” value [6] was 11.8 10^3/mm^3.
In the case of `C/C(=C\c1csc(C)n1)[C@@H]1C[C@@H]2O[C@]2(C)CCC[C@H](C)[C@H](O)[C@@H](C)C(=O)C(C)(C)[C@@H](O)CC(=O)O1` [Epothilone B, epothilone B], the IC50 [1, 9] is reported as 0.6 nM, the “folds of resistance (IC50 ratio vs parent cell line)” value [2] is reported as “(5.5x)” and the IC50 [2] is reported as 1.6 nM. The Died ([3]; 0.6 mg/kg QD × 4, 8 mice) was 8, the “Disappearance Duration” value ([3]; 0.6 mg/kg QD × 4, 8 mice) was 8 and the “Number of mice died” value ([3]; 0.6 mg/kg, 8 mice) was 8*. The body weight course ([3]; EpoB 0.6 mg/kg QDx4 i.p.) was “steady decreases in body weight until death”, the decrease in lymphocytes [3] was 43% and the “mice died of toxicity” value ([3]; 8 mice) was “all eight and 8 of 8”. For the same compound, the “mice died of toxicity” value ([3]; 8 mice, listed as EpoB) was “all eight”, the “reduction in average body weight” value ([3]; epothilone B 0.6 mg/kg i.p. for 4 days) was 33% and the “# Mice Died” value ([5]; 0.4 mg/kg QD × 6 from day 1) was 1/8. The “Average weight change” value ([5]; 0.4 mg/kg QD × 6 from day 1, day 3) was -0.2 g, the “Average Tumor Volume (T/C)” value [5, 18] was 1.08 and the “Average weight change” value [5, 18] was -0.6 g. For the same compound, the “Average weight change” value ([5]; 0.4 mg/kg QD × 6 from day 1, day 7) was -1.1 g, the “Average Tumor Volume (T/C)” value [5, 19] was 1.27 and the “Average weight change” value [5, 19] was -3.4 g. For the same compound, the “Average Tumor Volume (T/C)” value [5, 20] was 1.07, the “Average weight change” value [5, 20] was -3.9 g and the “mice died of toxicity” value ([5]; 0.4 mg/kg QDx6 from day 1 (FIG. 44)) was 1 of 8. The “Average weight change” value ([5]; 0.8 mg/kg QD × 5 from day 1, day 3) was 0 g, the “Average Tumor Volume (T/C)” value [5, 21] was 0.57 and the “Average weight change” value [5, 21] was -0.8 g. The “Average Tumor Volume (T/C)” value [5, 22] was 0.89, the “Average weight change” value [5, 22] was -3.1 g and the “Average weight change” value ([5]; 0.8 mg/kg QD × 5 from day 1, day 9) was -4.7 g. For the same compound, the “Average Tumor Volume (T/C)” value [5, 23] was 0.21, the “Average weight change” value [5, 23] was -4.7 g and the mice died ([5]; 0.8 mg/kg QDx5 from day 1 (FIG. 44)) was 5 of 8.
With `CC[C@]1(O)C[C@@H]2CN(CCc3c([nH]c4ccccc34)[C@@](C(=O)OC)(c3cc4c(cc3OC)N(C)[C@H]3[C@@](O)(C(=O)OC)[C@H](OC(C)=O)[C@]5(CC)C=CCN6CC[C@]43[C@@H]65)C2)C1` [Vinblastine, Vinblastine sulfate] the IC50 ([1]; Mesocricetus auratus, DC3F, Table 3) was 2.65 nM, the IC50 [7] was 78.9 nM and the IC50 [8] was 0.61 nM. For the same compound, the “Average Body Weight (change), Day 13” value [4, 12] was “+2.3 g”, the “Average Body Weight (change), Day 15” value [4, 12] was “+3.2 g” and the “Tumor Disappearance” value [4, 12] was 2/3. For the same compound, the “Average Tumor Size, Day 11” value [4, 12] was 11 mm^3, the “Average Tumor Size, Day 13” value ([4]; Q2D x 3: dEpoB 30 mg/kg 18 hr i.v. infusion, Taxol 15 mg/kg 6 hr infusion, VBL 2 and VP-16 25 mg/kg i.v. inj, control 128) was 11 mm^3 and the “Average Tumor Size, Day 15” value [4, 12] was 11 mm^3. The “Average Tumor Size, Day 17” value [4, 12] was 7 mm^3 and the “Average Body Weight, Day 7” value [4, 12] was 25.5 g.
